Laboratory results as given in PMC5814754, “Quantitative, Wide-Spectrum Kinase Profiling in Live Cells for Assessing the Effect of Cellular ATP on Target Engagement” (Cell Chemical Biology, 2018).

What was measured:
Assay in all cases: NanoBRET single-dose fractional occupancy profiling of kinase/Nluc library in live HEK293 cells (Table S1)
Assay type in all cases: binding
Design in all cases: Occupancy, % Replicate 1 / Occupancy, % Replicate 2: unit of the concentration uncertain
178 full-length kinases [1] = target: 178 full-length kinases (Homo sapiens, UniProt Q13705); conditions: ACVR2B, Nluc C, probe 2 at 1 (unit uncertain)
178 full-length kinases [2] = target: 178 full-length kinases (Homo sapiens, UniProt Q8WU08); conditions: STK32A (NP_001106195), Nluc orientation N, probe 5 at 1 (unit uncertain); replicate 2
178 full-length kinases [3] = target: 178 full-length kinases (Homo sapiens, UniProt Q8IVW4); conditions: CDKL3, Nluc N, probe 1 at 0.05 (unit uncertain)
Chain of 178 full-length kinases (Homo sapiens, UniProt Q8IVW4) (Q8IVW4 whole entry): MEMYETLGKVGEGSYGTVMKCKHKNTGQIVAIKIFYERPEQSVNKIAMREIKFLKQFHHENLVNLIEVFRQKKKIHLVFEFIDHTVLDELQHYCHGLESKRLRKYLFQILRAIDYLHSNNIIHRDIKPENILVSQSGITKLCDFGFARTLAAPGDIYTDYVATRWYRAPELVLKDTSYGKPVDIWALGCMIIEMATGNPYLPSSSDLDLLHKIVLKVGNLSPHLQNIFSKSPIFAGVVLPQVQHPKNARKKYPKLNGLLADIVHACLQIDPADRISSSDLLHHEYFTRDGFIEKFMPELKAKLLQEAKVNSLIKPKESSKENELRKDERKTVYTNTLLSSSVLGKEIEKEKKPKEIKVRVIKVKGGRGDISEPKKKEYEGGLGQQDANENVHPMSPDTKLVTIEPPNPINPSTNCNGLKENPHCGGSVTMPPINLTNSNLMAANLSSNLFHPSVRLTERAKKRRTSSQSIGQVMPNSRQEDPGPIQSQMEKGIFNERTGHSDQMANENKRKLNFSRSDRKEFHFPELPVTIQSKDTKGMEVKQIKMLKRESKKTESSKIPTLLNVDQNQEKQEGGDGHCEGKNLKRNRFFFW

178 full-length kinases [4] = target: 178 full-length kinases (Homo sapiens, UniProt P11309); conditions: PIM1, Nluc C, probe 5 at 1 (unit uncertain)
178 full-length kinases [5] = target: 178 full-length kinases (Homo sapiens, UniProt O75460); conditions: ERN1, Nluc C, probe 5 at 1 (unit uncertain)
Chain of 178 full-length kinases (Homo sapiens, UniProt O75460) (O75460 19-977): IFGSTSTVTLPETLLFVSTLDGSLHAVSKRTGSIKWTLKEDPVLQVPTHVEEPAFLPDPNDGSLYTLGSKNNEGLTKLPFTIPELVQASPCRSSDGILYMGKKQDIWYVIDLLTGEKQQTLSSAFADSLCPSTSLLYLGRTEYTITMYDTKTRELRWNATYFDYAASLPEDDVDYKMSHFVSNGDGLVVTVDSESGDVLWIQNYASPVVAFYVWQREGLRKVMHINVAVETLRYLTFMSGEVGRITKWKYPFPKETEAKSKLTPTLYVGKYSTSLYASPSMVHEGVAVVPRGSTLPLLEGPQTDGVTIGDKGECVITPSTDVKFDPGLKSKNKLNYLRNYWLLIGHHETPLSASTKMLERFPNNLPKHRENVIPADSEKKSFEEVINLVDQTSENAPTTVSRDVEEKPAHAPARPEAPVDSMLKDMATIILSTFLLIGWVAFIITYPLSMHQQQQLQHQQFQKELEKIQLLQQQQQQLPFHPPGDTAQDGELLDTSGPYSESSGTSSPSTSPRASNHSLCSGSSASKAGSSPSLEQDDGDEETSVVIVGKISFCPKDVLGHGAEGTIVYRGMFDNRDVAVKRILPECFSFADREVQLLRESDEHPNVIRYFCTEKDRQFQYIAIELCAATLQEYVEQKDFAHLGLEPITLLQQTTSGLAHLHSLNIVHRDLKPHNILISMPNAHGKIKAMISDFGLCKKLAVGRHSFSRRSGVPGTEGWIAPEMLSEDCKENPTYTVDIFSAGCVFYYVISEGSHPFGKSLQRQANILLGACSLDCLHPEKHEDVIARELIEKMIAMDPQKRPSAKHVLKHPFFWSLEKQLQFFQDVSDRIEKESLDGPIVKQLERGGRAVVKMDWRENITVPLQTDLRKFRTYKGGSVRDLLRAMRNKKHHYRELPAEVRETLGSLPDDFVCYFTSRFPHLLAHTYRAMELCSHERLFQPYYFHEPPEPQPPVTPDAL

178 full-length kinases [6] = target: 178 full-length kinases (Homo sapiens, UniProt Q00532); conditions: CDKL1, Nluc N, probe 1 at 0.1 (unit uncertain)
178 full-length kinases [7] = target: 178 full-length kinases (Homo sapiens, UniProt O96013); conditions: PAK4, Nluc C, probe 5 at 1 (unit uncertain)
178 full-length kinases [8] = target: 178 full-length kinases (Homo sapiens, UniProt Q15831); conditions: STK11 (NP_000446), Nluc orientation N, probe 5 at 1 (unit uncertain)
Chain of 178 full-length kinases (Homo sapiens, UniProt Q15831) (Q15831 whole entry): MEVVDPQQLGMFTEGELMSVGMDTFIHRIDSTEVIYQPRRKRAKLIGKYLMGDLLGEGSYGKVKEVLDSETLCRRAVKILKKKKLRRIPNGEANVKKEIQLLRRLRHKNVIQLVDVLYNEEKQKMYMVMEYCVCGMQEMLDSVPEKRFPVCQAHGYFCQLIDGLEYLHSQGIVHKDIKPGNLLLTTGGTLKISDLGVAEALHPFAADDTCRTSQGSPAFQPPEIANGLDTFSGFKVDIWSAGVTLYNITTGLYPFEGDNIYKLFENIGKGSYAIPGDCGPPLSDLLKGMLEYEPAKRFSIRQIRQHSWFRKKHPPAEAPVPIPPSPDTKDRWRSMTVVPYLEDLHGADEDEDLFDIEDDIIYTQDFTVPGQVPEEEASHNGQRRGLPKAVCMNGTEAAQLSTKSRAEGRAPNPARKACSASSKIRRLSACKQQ

178 full-length kinases [9] = target: 178 full-length kinases (Homo sapiens, UniProt P09769); conditions: FGR, Nluc N, probe 6 at 0.5 (unit uncertain)
178 full-length kinases [10] = target: 178 full-length kinases (Homo sapiens, UniProt P53779); conditions: JNK3, Nluc C, probe 5 at 1 (unit uncertain)
Chain of 178 full-length kinases (Homo sapiens, UniProt P53779) (P53779 whole entry): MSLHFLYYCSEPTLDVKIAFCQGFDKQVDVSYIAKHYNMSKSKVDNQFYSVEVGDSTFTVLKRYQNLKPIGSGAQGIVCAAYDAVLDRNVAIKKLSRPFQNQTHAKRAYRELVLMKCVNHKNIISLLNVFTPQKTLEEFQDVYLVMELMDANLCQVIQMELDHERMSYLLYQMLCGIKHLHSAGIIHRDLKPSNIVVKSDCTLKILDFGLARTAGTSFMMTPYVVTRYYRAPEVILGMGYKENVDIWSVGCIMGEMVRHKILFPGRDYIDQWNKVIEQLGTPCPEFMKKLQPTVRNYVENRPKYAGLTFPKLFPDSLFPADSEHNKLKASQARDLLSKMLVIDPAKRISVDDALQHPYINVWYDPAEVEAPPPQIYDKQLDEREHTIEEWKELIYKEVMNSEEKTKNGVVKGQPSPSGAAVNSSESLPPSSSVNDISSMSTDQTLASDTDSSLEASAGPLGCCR

178 full-length kinases [11] = target: 178 full-length kinases (Homo sapiens, UniProt Q9NYY3); conditions: PLK2, Nluc N, probe 5 at 1 (unit uncertain)
Chain of 178 full-length kinases (Homo sapiens, UniProt Q9NYY3) (Q9NYY3 whole entry): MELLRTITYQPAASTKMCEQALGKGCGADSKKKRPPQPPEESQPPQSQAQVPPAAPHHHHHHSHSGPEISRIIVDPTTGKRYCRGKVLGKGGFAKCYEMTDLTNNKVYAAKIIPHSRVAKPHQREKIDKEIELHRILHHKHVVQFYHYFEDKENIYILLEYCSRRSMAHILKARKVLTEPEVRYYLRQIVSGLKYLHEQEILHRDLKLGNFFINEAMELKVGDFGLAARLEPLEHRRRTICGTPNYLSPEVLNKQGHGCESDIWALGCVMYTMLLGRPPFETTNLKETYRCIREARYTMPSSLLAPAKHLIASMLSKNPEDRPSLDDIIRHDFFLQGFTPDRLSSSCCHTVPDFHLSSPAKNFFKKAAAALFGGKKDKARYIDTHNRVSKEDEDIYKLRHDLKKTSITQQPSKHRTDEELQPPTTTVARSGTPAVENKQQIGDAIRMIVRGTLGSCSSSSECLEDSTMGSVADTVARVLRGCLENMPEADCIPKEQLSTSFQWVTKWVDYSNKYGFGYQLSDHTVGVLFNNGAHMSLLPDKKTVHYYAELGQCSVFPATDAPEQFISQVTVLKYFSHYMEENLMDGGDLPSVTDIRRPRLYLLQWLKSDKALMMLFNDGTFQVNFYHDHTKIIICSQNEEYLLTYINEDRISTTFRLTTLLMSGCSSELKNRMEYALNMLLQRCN

178 full-length kinases [12] = target: 178 full-length kinases (Homo sapiens, UniProt Q92772); conditions: CDKL2, Nluc N, probe 1 at 0.1 (unit uncertain)
Chain of 178 full-length kinases (Homo sapiens, UniProt Q92772) (Q92772 whole entry): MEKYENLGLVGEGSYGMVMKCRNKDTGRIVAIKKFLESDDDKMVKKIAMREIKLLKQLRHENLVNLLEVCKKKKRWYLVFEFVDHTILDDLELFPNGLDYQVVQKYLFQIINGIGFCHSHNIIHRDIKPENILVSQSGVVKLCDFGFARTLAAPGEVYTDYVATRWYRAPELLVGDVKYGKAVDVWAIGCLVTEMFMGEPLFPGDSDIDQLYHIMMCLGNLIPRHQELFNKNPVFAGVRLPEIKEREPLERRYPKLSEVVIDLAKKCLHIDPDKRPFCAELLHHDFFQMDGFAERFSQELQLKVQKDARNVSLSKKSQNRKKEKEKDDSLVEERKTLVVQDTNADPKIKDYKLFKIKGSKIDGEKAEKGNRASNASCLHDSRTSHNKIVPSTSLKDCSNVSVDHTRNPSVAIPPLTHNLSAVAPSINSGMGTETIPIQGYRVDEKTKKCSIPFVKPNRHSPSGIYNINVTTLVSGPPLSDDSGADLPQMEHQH

178 full-length kinases [13] = target: 178 full-length kinases (Homo sapiens, UniProt P50750); conditions: CDK9, Nluc N, probe 1 at 0.5 (unit uncertain)
178 full-length kinases [14] = target: 178 full-length kinases (Homo sapiens, UniProt O95835); conditions: LATS1, Nluc C, probe 5 at 0.5 (unit uncertain)
178 full-length kinases [15] = target: 178 full-length kinases (Homo sapiens, UniProt Q99640); conditions: PKMYT1, Nluc C, probe 2 at 1 (unit uncertain)
178 full-length kinases [16] = target: 178 full-length kinases (Homo sapiens, UniProt P17612); conditions: PRKACA, Nluc C, probe 5 at 1 (unit uncertain)
178 full-length kinases [17] = target: 178 full-length kinases (Homo sapiens, UniProt Q9Y463); conditions: DYRK1B, Nluc N, probe 5 at 1 (unit uncertain)
Chain of 178 full-length kinases (Homo sapiens, UniProt Q9Y463) (Q9Y463 whole entry): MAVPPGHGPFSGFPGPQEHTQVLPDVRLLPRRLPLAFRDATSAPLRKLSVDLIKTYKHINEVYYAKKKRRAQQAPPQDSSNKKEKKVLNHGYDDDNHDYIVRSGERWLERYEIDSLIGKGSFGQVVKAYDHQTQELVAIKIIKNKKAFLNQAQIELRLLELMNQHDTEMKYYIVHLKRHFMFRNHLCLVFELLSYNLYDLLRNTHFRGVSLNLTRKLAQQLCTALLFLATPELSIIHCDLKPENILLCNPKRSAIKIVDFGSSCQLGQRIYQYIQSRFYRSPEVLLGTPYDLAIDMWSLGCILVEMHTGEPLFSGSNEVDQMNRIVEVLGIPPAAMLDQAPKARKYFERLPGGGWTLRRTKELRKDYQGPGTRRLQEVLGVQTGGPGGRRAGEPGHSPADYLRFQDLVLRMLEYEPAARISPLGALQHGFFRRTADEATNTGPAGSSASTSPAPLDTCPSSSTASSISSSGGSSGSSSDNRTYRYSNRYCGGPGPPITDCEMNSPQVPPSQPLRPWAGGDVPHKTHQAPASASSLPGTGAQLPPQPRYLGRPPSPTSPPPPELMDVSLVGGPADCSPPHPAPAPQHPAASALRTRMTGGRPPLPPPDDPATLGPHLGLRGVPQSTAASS

178 full-length kinases [18] = target: 178 full-length kinases (Homo sapiens, UniProt P54646); conditions: PRKAA2, Nluc N, probe 5 at 0.5 (unit uncertain)
Chain of 178 full-length kinases (Homo sapiens, UniProt P54646) (P54646 whole entry): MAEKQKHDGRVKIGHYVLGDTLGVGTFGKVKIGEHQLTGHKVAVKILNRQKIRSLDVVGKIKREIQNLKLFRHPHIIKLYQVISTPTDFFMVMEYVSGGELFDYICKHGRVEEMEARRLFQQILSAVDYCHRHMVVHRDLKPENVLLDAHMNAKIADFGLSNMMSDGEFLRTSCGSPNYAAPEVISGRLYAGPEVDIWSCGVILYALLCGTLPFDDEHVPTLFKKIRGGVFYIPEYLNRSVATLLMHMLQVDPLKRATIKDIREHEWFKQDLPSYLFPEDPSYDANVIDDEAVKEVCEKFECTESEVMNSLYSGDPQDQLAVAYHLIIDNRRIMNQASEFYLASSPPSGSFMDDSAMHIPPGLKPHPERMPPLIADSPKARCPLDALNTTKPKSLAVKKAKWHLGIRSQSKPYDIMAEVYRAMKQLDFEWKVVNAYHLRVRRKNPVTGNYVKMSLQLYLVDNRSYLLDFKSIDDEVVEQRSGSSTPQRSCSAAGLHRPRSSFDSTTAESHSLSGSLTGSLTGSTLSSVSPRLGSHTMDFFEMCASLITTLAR

178 full-length kinases [19] = target: 178 full-length kinases (Homo sapiens, UniProt Q13237); conditions: PRKG2, Nluc C, probe 5 at 1 (unit uncertain)

C[C@@H](Oc1cc(-c2cnn(C3CCNCC3)c2)cnc1N)c1c(Cl)ccc(F)c1Cl [Crizotinib]
No Binding: Occupancy, % Replicate 1 (178 full-length kinases [1]) | Occupancy, % Replicate 2 (178 full-length kinases [2]) | Occupancy, % Replicate 1 (178 full-length kinases [3]) | Occupancy, % Replicate 2 (178 full-length kinases [3]) | Occupancy, % Replicate 1 (178 full-length kinases [4]) | Occupancy, % Replicate 1 (178 full-length kinases [5]) | Occupancy, % Replicate 2 (178 full-length kinases [5]) | Occupancy, % Replicate 1 (178 full-length kinases [6]) | Occupancy, % Replicate 2 (178 full-length kinases [6]) | Occupancy, % Replicate 2 (178 full-length kinases [7]) | Occupancy, % Replicate 1 (178 full-length kinases [8]; replicate 1) | Occupancy, % Replicate 2 (178 full-length kinases [8]; replicate 2) | Occupancy, % Replicate 2 (178 full-length kinases [9]) | Occupancy, % Replicate 1 (178 full-length kinases [10]) | Occupancy, % Replicate 2 (178 full-length kinases [10]) | Occupancy, % Replicate 1 (178 full-length kinases [11]) | Occupancy, % Replicate 2 (178 full-length kinases [11]) | Occupancy, % Replicate 1 (178 full-length kinases [12]) | Occupancy, % Replicate 2 (178 full-length kinases [12]) | Occupancy, % Replicate 1 (178 full-length kinases [13]) | Occupancy, % Replicate 2 (178 full-length kinases [13]) | Occupancy, % Replicate 1 (178 full-length kinases [14]) | Occupancy, % Replicate 1 (178 full-length kinases [15]) | Occupancy, % Replicate 1 (178 full-length kinases [16]) | Occupancy, % Replicate 2 (178 full-length kinases [16]) | Occupancy, % Replicate 1 (178 full-length kinases [17]) | Occupancy, % Replicate 2 (178 full-length kinases [17]) | Occupancy, % Replicate 1 (178 full-length kinases [18]) | Occupancy, % Replicate 2 (178 full-length kinases [18]) | Occupancy, % Replicate 2 (178 full-length kinases [19])
